Reference: patent publication US20220306623A1, “PYRIDYL OR PYRIMIDYL MTOR KINASE INHIBITORS” (GLAXOSMITHKLINE INTELLECTUAL PROPERTY DEVELOPMENT LIMITED, priority 2019, published 2022)
Like-named read-outs stand apart in the source and are kept apart here.

Target: T1, mTOR (Homo sapiens, UniProt P42345)
T1 construct: capturing of endogenously expressed target proteins from cell extracts by a bead-immobilized capturing ligand; endogenous in cells; host or cells: HuT-78 cells (ECACC 88041901), cell lysate
Assay: mTOR kinobeads competition-binding assay
Conditions: HuT-78 cell lysate
Method: The affinity of test compounds for mTOR was determined in the mTOR kinobeads assay. This is a competition-binding assay based on the capturing of endogenously expressed target proteins from cell extracts by a bead-immobilized capturing ligand in the presence of the test compound.
HuT-78 cells (European Collection of Authenticated Cell Cultures, 88041901) were cultured according to vendor's instructions. Frozen cell pellets were homogenized in 3× pellet volumes lysis buffer (50 mM Tris-HCl, 0.4% (v/v) Igepal-CA630, 5% glycerol, 150 mM NaCl, 1.5 mM MgCl2, 25 mM NaF, 1 mM sodium vanadate, 1 mM DTT, pH 7.5, supplemented with EDTA-free protease inhibitor tablet (Roche)). The sample was dispersed using a Dounce homogenizer, kept rotating for 30 min at 4° C., and centrifuged for 10 min at 20000 gat 4° C. The supernatant was centrifuged again for 1 h at 145 000 g. The protein concentration was determined by Bradford assay (BioRad), aliquots were snap frozen in liquid nitrogen and stored at −80° C.
The capturing matrices were generated by derivatizing N-hydroxysuccinimide (NHS) activated Sepharose 4 beads (GE Healthcare) with the functionalized ligands Compound A and Compound C at a ligand density of 5 mM. Remaining NHS-groups were blocked with ethanolamine.
For the mTOR kinobeads assay the matrices were combined in a 1:1 ratio and equilibrated in DP buffer (50 mM Tris-HCl (pH 7.5), 0.4% (v/v) Igepal-CA630, 5% (v/v) glycerol, 150 mM NaCl, 1.5 mM MgCl2, 25 mM NaF, 1 mM Na3VO4, 1 mM dithiothreitol). All steps of the mTOR kinobeads assay were performed at 4° C. or on ice. The cell lysate was diluted with DP buffer to a final concentration of 5 mg/ml and a final detergent concentration of 0.4% (v/v) Igepal-CA630. For the assay 250 μg cell lysate and 2.5 μl capturing matrix per well (final assay volume: 75 μl) were incubated in the presence of test compounds in a 384-well filter plate (MultiScreenHTS HV Filter Plate, 0.45 μm, MZHVNOW50, Merck Millipore). Each plate contained 16 positive (100 μM Compound B) and 16 negative (2% v/v DMSO) control wells. Compounds were tested in a concentration-response applying 1:3 or 1:4 dilution steps for in total 11 data points. DMSO concentration was 2% (v/v). After 2 h incubation on an overhead shaker (Roto-Shake Genie, Scientific Industries Inc.) at 4° C. the non-bound fraction was removed by washing the beads with DP buffer. Proteins retained on the beads were eluted in SDS sample buffer (200 mM Tris (pH 7.4), 250 mM Trizma Base, 4% (w/v) SDS, 20% (v/v) glycerol, 0.01% (w/v) bromophenol blue, 50 mM dithiothreitol) into a collection plate (384 well polypropylene microplate, V-shape, Greiner, 781 280). Eluates were spotted on nitrocellulose membranes (400 nl per spot) using an automated pin-tool liquid transfer (Biomek FX, Beckman). After drying, the membranes were rehydrated in 20% (v/v) ethanol and blocked by incubation with Odyssey blocking buffer (LICOR, 927-40000) for 1 h at room temperature. Blocked membranes were incubated overnight at 25° C. with Odyssey blocking buffer supplemented with a specific anti-mTOR antibody (Cell Signaling, 2972; 1:500) and 0.4% TWEEN-20. Then the membranes were washed in PBST buffer and incubated for 60 minutes at room temperature with the detection antibody (IRDye™ labelled antibody from LI-COR) diluted in Odyssey blocking buffer (LICOR 927-40000) containing 0.2% TWEEN-20. Then the membranes were washed with PBST and finally rinsed twice with PBS buffer to remove residual Tween-20. The membranes were then scanned with the Odyssey® Infrared Imaging System (LI-COR Biosciences). Fluorescence signals were recorded and analyzed according to the instructions of the manufacturer. Concentration response curves were computed with the software Activity Base. All data were normalized to the mean of 16 high (negative control) and 16 low (positive control) control wells on each plate. […]

[1] = bead-immobilized capturing ligand, 2 h at 4° C., mean of multiple experiments, read-out: mean pIC50, mTOR kinobeads assay (converted)
[2] = selected compounds, mean, read-out: mTOR (mean pIC50 values when tested in the mTOR binding assay) (converted)

| Structure (SMILES) | IC50 [1] | IC50 [2] |
| --- | --- | --- |
| CC[C@H]1COCC(=O)N1c1cc(CS(C)(=O)=O)nc(-c2ccc3[nH]c(C)cc3n2)n1 [Example 14, (5S)-5-ethyl-4-[6-(methanesulfonylmethyl)-2-{2-methyl-1H-pyrrolo[3,2-b]pyridin-5-yl}pyrimidin-4-yl]morpholin-3-one] | ≤ 0.2 nM | 0.2 nM |
| CC[C@H]1COCCN1c1cc(CS(N)(=O)=O)nc(-c2ccc3[nH]c(CNC)cc3n2)n1 [Example 6, {6-[(3S)-3-ethylmorpholin-4-yl]-2-{2-[(methylamino)methyl]-1H-pyrrolo[3,2-b]pyridin-5-yl}pyrimidin-4-yl}methanesulfonamide] | ≤ 1.26 nM | – |
| CC[C@H]1COCC(=O)N1c1cc(CS(C)(=O)=O)cc(-c2ccc3[nH]c(C)cc3n2)n1 [Example 24, (S)-5-ethyl-4-(6-(2-methyl-1H-pyrrolo[3,2-b]pyridin-5-yl)-4-((methylsulfonyl)methyl)pyridin-2-yl)morpholin-3-one] | ≤ 1.26 nM | 0.501 nM |
| CC[C@H]1COCCN1c1cc(CS(=O)(=O)N(C)C)nc(-c2ccc3[nH]c(CO)cc3n2)n1 [Example 9, 1-{6-[(3S)-3-ethylmorpholin-4-yl]-2-[2-(hydroxymethyl)-1H-pyrrolo[3,2-b]pyridin-5-yl]pyrimidin-4-yl}-N,N-dimethylmethanesulfonamide] | ≤ 0.316 nM | – |
| CC[C@H]1COCCN1c1cc(C2(S(C)(=O)=O)CCOCC2)nc(-c2ccc3[nH]c(C)cc3n2)n1 [Example 13, (3S)-3-ethyl-4-[6-(4-methanesulfonyloxan-4-yl)-2-{2-methyl-1H-pyrrolo[3,2-b]pyridin-5-yl}pyrimidin-4-yl]morpholine] | ≤ 1.26 nM | – |
| CC[C@H]1COCC(=O)N1c1cc(CS(C)(=O)=O)cc(-c2ccc3[nH]c(CO)cc3n2)n1 [Example 27] | ≤ 1.26 nM | – |
| CC[C@H]1COCC(=O)N1c1cc(C2(S(C)(=O)=O)CCOCC2)cc(-c2ccc3[nH]c(CO)cc3n2)n1 [Example 26] | ≤ 0.316 nM | – |
| CC[C@H]1COCCN1c1cc(CS(C)(=O)=O)nc(-c2ccc3[nH]c(CO)cc3n2)n1 [Example 2, (S)-(5-(4-(3-ethylmorpholino)-6-((methylsulfonyl)methyl)pyrimidin-2-yl)-1H-pyrrolo[3,2-b]pyridin-2-yl)methanol] | ≤ 1.26 nM | – |
| CC[C@H]1COCC(=O)N1c1cc(C2(S(C)(=O)=O)CCOCC2)cc(-c2ccc3[nH]c(C)cc3n2)n1 [Example 25, (S)-5-ethyl-4-(6-(2-methyl-1H-pyrrolo[3,2-b]pyridin-5-yl)-4-(4-(methylsulfonyl)tetrahydro-2H-pyran-4-yl)pyridin-2-yl)morpholin-3-one] | ≤ 1.26 nM | – |
| CC[C@H]1COCCN1c1cc(C2(S(C)(=O)=O)CCNCC2)cc(-c2ccc3[nH]c(C)cc3n2)n1 [Example 18, (S)-3-ethyl-4-(6-(2-methyl-1H-pyrrolo[3,2-b]pyridin-5-yl)-4-(4-(methylsulfonyl)piperidin-4-yl)pyridin-2-yl)morpholine] | – | 6.31 nM |
| CCc1cc2nc(-c3nc(CS(C)(=O)=O)cc(N4C(=O)COC[C@@H]4CC)n3)ccc2[nH]1 [Example 15, (5S)-5-ethyl-4-(2-{2-ethyl-1H-pyrrolo[3,2-b]pyridin-5-yl}-6-(methanesulfonylmethyl)pyrimidin-4-yl)morpholin-3-one] | ≤ 0.316 nM | 0.316 nM |
| CC[C@H]1COCCN1c1cc(C2(S(C)(=O)=O)CCOCC2)nc(-c2ccc3[nH]c(CO)cc3n2)n1 [Example 4, (5-{4-[(3S)-3-ethylmorpholin-4-yl]-6-(4-methanesulfonyloxan-4-yl)pyrimidin-2-yl}-1H-pyrrolo[3,2-b]pyridin-2-yl)methanol] | ≤ 1.26 nM | – |
| CC[C@H]1COCCN1c1cc(CS(=O)(=O)N(C)C)nc(-c2ccc3[nH]c(CNC)cc3n2)n1 [Example 16, 1-{6-[(3S)-3-ethylmorpholin-4-yl]-2-{2-[(methylamino)methyl]-1H-pyrrolo[3,2-b]pyridin-5-yl}pyrimidin-4-yl}-N,N-dimethylmethanesulfonamide] | ≤ 1.26 nM | 0.631 nM |
| CC[C@H]1COCCN1c1cc(CS(C)(=O)=O)nc(-c2ccc3[nH]c(CNC)cc3n2)n1 [Example 1, [(5-{4-[(3S)-3-ethylmorpholin-4-yl]-6-(methanesulfonylmethyl)pyrimidin-2-yl}-1H-pyrrolo[3,2-b]pyridin-2-yl)methyl](methyl)amine] | ≤ 1.26 nM | 0.794 nM |
| CC[C@H]1COCCN1c1cc(CS(N)(=O)=O)cc(-c2ccc3[nH]c(C)cc3n2)n1 [Example 23, (S)-(2-(3-ethylmorpholino)-6-(2-methyl-1H-pyrrolo[3,2-b]pyridin-5-yl)pyridin-4-yl)methanesulfonamide] | ≤ 1.26 nM | – |
| CC[C@H]1COCCN1c1cc(CS(=O)(=O)NC)nc(-c2ccc3[nH]c(CO)cc3n2)n1 [Example 10, 1-{6-[(3S)-3-ethylmorpholin-4-yl]-2-[2-(hydroxymethyl)-1H-pyrrolo[3,2-b]pyridin-5-yl]pyrimidin-4-yl}-N-methylmethanesulfonamide] | ≤ 0.0794 nM | – |
